Columns and labels:
[1] = test system: lipopolysaccharide-induced lung injury; test: rat model of acute lung injury induced by airway infusion of LPS; differential cell counts in BALF; format: in vivo, Wistar rat
Description: Acute lung injury (ALI) is a systemic uncontrolled inflammatory response caused by various direct and indirect injury factors, accompanied by alveolar epithelial cells and capillary endothelial cell injury, its pathogenesis is still unclear, and there is still no effective treatment means. A rat model with airway infusion of lipopolysaccharide (LPS) is a commonly used animal model. In this study, airway infusion of LPS induced acute lung injury in rats. The animals were injected compounds via tail vein. After four hours, lung lavage and bronchoalveolar lavage fluid were collected, and differential cell were counts and measured to represent the efficacy of test compounds in preventing lipopolysaccharide-induced lung injury.
Except for group 1, all other groups were received pulmonary perfusion of lipopolysaccharide. Animals were anesthetized by 3-5% isoflurane, and 100 μl of LPS solution (1 mg/ml) was introduced into rat trachea with a micro-atomizer intubation, and after 4 hours, the animals were killed with chloral hydrate (750 mg/kg). The lungs were gently perfused three times in situ with 4 ml of PBS+1% albumin. After lavage, bronchoalveolar lavage fluid (BALF) was preserved in ice, and then the number of eosinophils (EOS), macrophages (Mac), neutrophils (Neu), lymphocytes (Lym) and the total number of cells were measured.

[2] = test system: mouse models of asthma; test: mouse models of asthma (ovalbumin sensitization and aerosol challenge); BALF cell counts, Penh, BALF cytokines; format: in vivo, BALB/c mice
Description: On the first day and the 14th day of the experiment, the asthma models were sensitized by intraperitoneal injection, and the asthma group was given sensitization solution containing 20 μg of ovalbumin and 2 mg of alum suspension each time.
3.3.2 On the days 28, 29 and 30, the mice of 2-4 groups were stimulated with aerosol, which included dissolving 100 mg OVA in 10 ml PBS and adding 5 μl Triton X-100, and atomized by atomizing inhalation facility (Buxco) for 30 minutes, and then the nebulizer was turned off. Finally, the mice were kept in the inhalation box for additional 7 minutes, and following by being taken out. The negative control mice were exposed in aerosolized PBS for 30 minutes.
Group 1 (PBS control group) were injected intraperitoneally with PBS at 2 hours before PBS sensitization on the days 28, 29 and 30. Group 2 (OVA control group) were injected intraperitoneally with PBS at 2 hours before OVA sensitization on the days 28, 29 and 30. Group 3 were injected intraperitoneally with ZD018 at 2 hours before OVA sensitization on the days 28, 29 and 30. Group 4 were intragastrically administrated with dexamethasone at 2 hours before OVA sensitization on the days 28, 29 and 30.
On the 31st (24 hours after the last challenge), the Penh of mice were detected with a Buxco mouse non-invasive pulmonary function instrument. The change of Penh was determined after atomization stimulating of 300 μl doubling concentration of methacholine (Mch). The stimulating concentrations from low to high were 0, 0.78, 1.56, 3.125, 6.25, 12.5, 25 and 50 g/L, respectively. The mean value of Penh was recorded at each stimulating concentration level of Mch. The Penh value at each stimulating concentration of Mch was converted to a percentage of the Penh value at the time of the stimulating normal saline (The Penh value stimulated by Mch/The Penh value stimulated by normal saline, 100%), and represented by penh %, which was used as an evaluation index for mice airway response.
3.5 The observation of airway inflammation: the cytological examination of bronchoalveolar lavage and bronchoalveolar lavage fluid (BALF).
3.6 IL-13 and IL-5 cytokine levels in bronchoalveolar lavage fluid (BALF) were tested with Elisa Kit (R&D, USA).

[3] = test doses of 5 mg/kg, 1 mg/kg and 0.2 mg/kg i.v. 3 hours before LPS perfusion, BALF 4 hours after LPS, compared with the model group (FIG. 4)
[4] = ZD018 1 mg/kg i.p. 2 hours before OVA challenge on days 28, 29 and 30 (FIG. 6)

## Slit2D2(C386S)-HSA: recombinant fusion protein of Slit2 D2 domain (cysteine at position 386 mutated to serine) and HSA, SEQ ID NO: 2
[1]; both at 5 mg/kg dose i.v. 3 hours before LPS perfusion (FIG. 4)
  efficacy compared with Slit2D2-HSA recombinant protein: superior to Slit2D2-HSA recombinant protein
[1]; [3]
  increase of cell number (total number of cells in BALF): significantly inhibited
  number of neutrophils in bronchoalveolar lavage fluid: significantly controlled
[2]; ZD018 1 mg/kg i.p. 2 hours before OVA challenge on days 28, 29 and 30 (FIG. 5)
  accumulation of eosinophils in alveolar fluid (BALF): significantly inhibit
[2]; [4]
  accumulation of lymphocytes in alveolar fluid (BALF): inhibit
  accumulation of neutrophils in alveolar fluid (BALF): inhibit
[2]; ZD018 1 mg/kg i.p., Elisa Kit (FIG. 8)
  IL-5 cytokine level in bronchoalveolar lavage fluid (BALF): inhibit
[2]; ZD018 1 mg/kg i.p., Elisa Kit (FIG. 9)
  IL-13 cytokine level in bronchoalveolar lavage fluid (BALF): inhibit
[2]; ZD018 1 mg/kg i.p., day 31, 24 hours after the last challenge, Mch 0-50 g/L, compared with control group G2 (FIG. 7)
  enhanced pause (Penh) index stimulated by methacholine (Mch): effectively inhibit

— US11149071B2, “Fusion protein Slit2D2(C386S)-HSA and use thereof in prevention and/or treatment of lung inflammation” (Asclepius (Suzhou) Technology Company Group Co., Ltd., priority 2017, dated 2021)
